How the values were obtained:
rHBV-CreN [1] = assay: rHBV-CreN infection of CreC/CIR reporter cells with entry inhibitor, DsRed-positive cells by flow cytometry; assay type: cell-based, hepatitis B virus
Experimental: HepG2-NTCP-CreC/CIR cells were seeded on collagen-coated plates with a density of 1.34×10^3 cells/mm^2 and cultured in DMEM containing 2.5% dimethylsulfoxide (DMSO) for 2 days prior to infection. The inoculum was prepared by diluting the virus in DMEM containing 2.5% DMSO and 4% PEG8000. […] The cells were inoculated for 24 hours and maintained in DMEM containing 2.5% DMSO for indicated time according to the experimental set-ups.
(§1) Cells were collected from 24-well plates using trypsin-versene at a 1:1 ratio (Gibco, 15400-054 and 15040-033). Cell pellets were resuspended in 1 ml of FACS buffer (PBS containing 1% BSA and 0.5 mM EDTA) and incubated with LIVE/DEAD™ Fixable Near-Infrared dead cell stain kit (Invitrogen, L10119). The samples were subjected to CytoFLEX S (Beckman Coulter) and the obtained data was analyzed by FlowJo software (v10, FlowJo LLC.).

rHBV-CreN [2] = assay: HBeAg ELISA of supernatant of rHBV-CreN infected CreC/CIR cells; assay type: cell-based, hepatitis B virus; details: rHBV-CreN MOI=250 with MyrB, day 7 post-infection
Experimental: (§2) HepG2-NTCP-CreC/CIR cells were seeded on collagen-coated plates with a density of 1.34×10^3 cells/mm^2 and cultured in DMEM containing 2.5% dimethylsulfoxide (DMSO) for 2 days prior to infection. The inoculum was prepared by diluting the virus in DMEM containing 2.5% DMSO and 4% PEG8000. For blocking rHBV entry, Myrcludex B (200 nM) was added to the rHBV inoculum (Li and Urban, 2016, Cancer research 42, 3858-3863). The cells were inoculated for 24 hours and maintained in DMEM containing 2.5% DMSO for indicated time according to the experimental set-ups.
The amount of HBeAg in cell-derived supernatants was measured using a commercial qualitative immunoassay—Enzygnost HBe monoclonal (Siemens, OQDM11) and automated BEP III system (Siemens Healthcare).

rHBV-CreN [3] = assay: Detection of Cre-lox recombination by PCR in rHBV-CreN infected CreC/CIR cells; assay type: cell-based, hepatitis B virus; details: rHBV-CreN infected CreC/CIR cells treated with MyrB
Experimental: as §2
Genomic DNA of the cells was isolated using NucleoSpin® Tissue Kit (Macherey-Nagel, 740952.250). The Cre-lox recombination was analyzed by PCR using primers flanking the neomycin sequence (forward, 5′-[…]-3′ (SEQ ID NO: 29) and reverse, 5′-GGTACCGTCGACTGCAGAT-3′ (SEQ ID NO: 30)). The PCR was performed with 250 ng of genomic DNA and Phusion® Hot Start Flex DNA Polymerase (New England Biolabs, M0535S). The reaction required the following conditions: 1 cycle of denaturation at 98° C. for 30 seconds, 35 cycles of amplification (98° C. for 10 seconds, 61° C. for 30 seconds, 72° C. for 45 seconds), and 1 cycle of extension at 72° C. for 1 minute. The PCR products were examined by agarose gel electrophoresis.

rHBV-CreN [4] = assay: Western blot of Co-InCre reconstitution and core protein in rHBV-CreN infected CreC/CIR cells; assay type: cell-based, hepatitis B virus; details: rHBV-CreN infected CreC/CIR cells treated with MyrB
Experimental: as §2
Cellular proteins were isolated using RIPA buffer (Pierce, 89900) containing a protease inhibitor cocktail (Roche, 11836153001). The proteins were separated by 12% Sodium dodecyl sulphate-polyacrylamide gel electrophoresis (SDS-PAGE) and subsequently transferred onto a polyvinylidene difluoride (PVDF) membrane (Bio-Rad, 162-0177). The blotted membrane was blocked with 5% milk-TBST (20 mM Tris-HCl, pH7.4, 140 mM NaCl, 1% Tween 20). The antibodies were diluted in 1.5% milk-TBST. For core protein detection, an in-house hybridoma supernatant (8C9) was used in a 1:1 dilution. For Co-InCre detection, an anti-Cre antibody (Merck, 69050) was used in a 1:1000 dilution. […]-Actin (1:5000; Sigma, A5441) was used as a reference protein. […] The chemiluminescent signal was detected by Intas ECL ChemoCam.

[5] = system: rHBV-CreN infected HepG2-NTCP-CreC/CIR cells; assay: Negative selection of rHBV-CreN infected cells with Neomycin, flow cytometry; assay type: cell-based, human; details: Neomycin 2 mg/ml for 30 days
Experimental: as §1

Row | Substance | number of DsRed-positive cells (rHBV-CreN [1]; CreC/CIR cells, rHBV-CreN MOI=250, MyrB added to the inoculum, day 7 post-infection, FACS) | percentage of DsRed-positive cells (rHBV-CreN [1]; HepG2-NTCP-CreC/CIR cells, rHBV-CreN MOI=300 virions/cell, Myrcludex B 200 nM, 10 days post infection, flow cytometry) | HBeAg level (rHBV-CreN [2]) | 0.2-kb band (ΔNeo) PCR product (rHBV-CreN [3]) | Co-InCre detection (Western blot) (rHBV-CreN [4]) | core protein detection (Western blot) (rHBV-CreN [4]) | reduction of the number of DsRed-positive cells compared to untreated group [5] [fold]
1 | Myrcludex-B [MyrB] | less than 1% | less than 1% | comparable to that of the mock sample | absent | not detected | not detected | 
2 | Neomycin |  |  |  |  |  |  | 3.6

Source: patent US11578321B2, “Recombinant HBV reporter system” (Helmholtz Zentrum München Deutsches Forschungszentrum für …, priority 2018, dated 2023)
